Read-outs that look alike come from different tables or passages of the source.
Molecular target: T1, Chk1 (Homo sapiens, UniProt O14757)
T1 construct: purchased Upstate Biotechnology
T1 sequence (O14757 1-476): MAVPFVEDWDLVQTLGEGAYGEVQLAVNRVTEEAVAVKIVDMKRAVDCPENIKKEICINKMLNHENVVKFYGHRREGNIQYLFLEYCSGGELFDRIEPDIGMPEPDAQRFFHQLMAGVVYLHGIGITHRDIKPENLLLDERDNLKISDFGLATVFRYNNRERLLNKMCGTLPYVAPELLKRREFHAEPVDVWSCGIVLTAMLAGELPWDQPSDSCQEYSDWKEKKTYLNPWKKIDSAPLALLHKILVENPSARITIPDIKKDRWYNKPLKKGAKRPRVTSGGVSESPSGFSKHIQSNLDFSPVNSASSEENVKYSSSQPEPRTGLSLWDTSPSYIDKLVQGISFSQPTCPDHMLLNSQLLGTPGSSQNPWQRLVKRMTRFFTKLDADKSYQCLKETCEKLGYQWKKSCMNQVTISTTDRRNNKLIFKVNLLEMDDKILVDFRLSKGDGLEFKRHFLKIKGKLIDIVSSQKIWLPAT
Test: Chk1 kinase assay: incorporation of γ-33P ATP into immobilized myelin basic protein
Type: biochemical
Details: read-out: Chk1 IC50
Method in brief: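 Immobilized-MBP radiometric kinase assay, room temperature for 1 h; ATP 10 μM (Chk1, 10 nM enzyme) or 30 μM (Chk2, 20 nM enzyme) with 33P tracer. Values are IC50s, with Ki derived from them.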

[1] = Table 11, Chk1 only, class symbols A-D

IC50 [1]	IC50	SMILES	other results
–	–	Nc1ncc(-c2cccc(C(=O)NCc3ccccc3)c2)nc1C(=O)N[C@H]1CCN(Cc2ccccn2)C1 [Example 696, 3-amino-6-(3-{[(phenylmethyl)amino]carbonyl}phenyl)-N-[(3S)-1-(pyridin-2-ylmethyl)pyrrolidin-3-yl]pyrazine-2-carboxamide]	IC50 (Table 11, Chk1 only): 50 to 1000 nM
< 50 nM	–	NCc1cccc(-c2cnc(N)c(-c3nc([C@H]4CCCNC4)n[nH]3)n2)c1 [Example 923, 5-[3-(aminomethyl)phenyl]-3-{3-[(3S)-piperidin-3-yl]-1H-1,2,4-triazol-5-yl}pyrazin-2-amine]	–
–	< 50 nM	CNC(=O)c1nc(-c2cccc(NC(=O)Nc3cccc(-c4cnc(N)c(C(=O)NC)n4)c3)c2)cnc1N [Example 91, 6,6′-[(oxomethanediyl)bis(iminobenzene-3,1-diyl)]bis(3-amino-N-methylpyrazine-2-carboxamide)]	–
–	–	CNC(=O)c1nc(-c2cccc(CN[C@H]3Cc4ccc(Br)cc4C3)c2)cnc1N [Example 465, 3-amino-6-[3-({[(2S)-5-bromo-2,3-dihydro-1H-inden-2-yl]amino}methyl)phenyl]-N-methylpyrazine-2-carboxamide]	IC50 (Table 11, Chk1 only): < 50 nM
50 to 1000 nM	–	CN1CC[C@H](NC(=O)c2nc(-c3cccc(C(=O)N[C@@H]4c5ccccc5C[C@@H]4O)c3)cnc2N)C1 [Example 805, 3-amino-6-[3-({[(1R,2S)-2-hydroxy-2,3-dihydro-1H-inden-1-yl]amino}carbonyl)phenyl]-N-[(3S)-1-methylpyrrolidin-3-yl]pyrazine-2-carboxamide]	–
–	1000 to 10000 nM	CCN(Cc1ccncc1)C(=O)c1cccc(-c2cnc(N)c(C(=O)NC)n2)c1 [Example 116, 3-amino-6-(3-{[ethyl(pyridin-4-ylmethyl)amino]carbonyl}phenyl)-N-methylpyrazine-2-carboxamide]	–
< 50 nM	–	Nc1ncc(-c2cccc(C(=O)N[C@H]3CCc4ccccc43)c2)nc1C(=O)NC1CCCCNC1 (stereo partly drawn) [Example 967, 3-amino-N-azepan-3-yl-6-(3-{[(1S)-2,3-dihydro-1H-inden-1-ylamino]carbonyl}phenyl)pyrazine-2-carboxamide]	–
< 50 nM	–	Nc1ncc(-c2cccc(NC(=O)Cc3cc(F)ccc3F)c2)nc1C(=O)N[C@H]1CCCNC1 [Example 982, 3-amino-6-(3-{[(2,5-difluorophenyl)acetyl]amino}phenyl)-N-[(3S)-piperidin-3-yl]pyrazine-2-carboxamide]	–
–	1000 to 10000 nM	CNC(=O)c1nc(-c2cccc(C(=O)NCc3cnc(C)cn3)c2)cnc1N [Example 120, 3-amino-N-methyl-6-[3-({[(5-methylpyrazin-2-yl)methyl]amino}carbonyl)phenyl]pyrazine-2-carboxamide]	–
–	50 to 1000 nM	CNC(=O)c1nc(-c2cccc(C(=O)NCc3ccc(F)c(Br)c3)c2)cnc1N [Example 257, 3-amino-6-[3-({[(3-bromo-4-fluorophenyl)methyl]amino}carbonyl)phenyl]-N-methylpyrazine-2-carboxamide]	–
–	–	CNC(=O)c1nc(-c2cccc(C(=O)NNc3c(F)c(F)c(C)c(F)c3F)c2)cnc1N [Example 431, 3-amino-N-methyl-6-(3-{[2-(2,3,5,6-tetrafluoro-4-methylphenyl)hydrazino]carbonyl}phenyl)pyrazine-2-carboxamide]	IC50 (Table 11, Chk1 only): 50 to 1000 nM
–	50 to 1000 nM	CNC(=O)c1nc(-c2cccc(C(=O)NCc3ccccc3)c2)cnc1N [Example 84, 3-amino-N-methyl-6-(3-{[(phenylmethyl)amino]carbonyl}phenyl)pyrazine-2-carboxamide]	–
< 50 nM	–	Nc1ncc(-c2cccc(C(=O)NCc3ccc(Cl)cc3F)c2)nc1C(=O)N[C@H]1CCCNC1 [Example 849, 3-amino-6-[3-({[(4-chloro-2-fluorophenyl)methyl]amino}carbonyl)phenyl]-N-[(3S)-piperidin-3-yl]pyrazine-2-carboxamide]	–
–	–	CNC(=O)c1cc(-c2cccc(CNC3CCc4c(F)cc(F)cc43)c2)cnc1N (centres unmarked) [Example 520, 2-amino-5-(3-{[(4,6-difluoro-2,3-dihydro-1H-inden-1-yl)amino]methyl}phenyl)-N-methylpyridine-3-carboxamide]	IC50 (Table 11, Chk1 only): 50 to 1000 nM

From patent US7704995B2 (Exelixis, Inc., priority 2003, dated 2010)
